Test results as given in publication PMC10046377, “Inhibitors of the Oncogenic PA2G4-MYCN Protein-Protein Interface” (Cancers, 2023).

Key:
PA2G4 protein = target: T1, PA2G4 protein (Homo sapiens, UniProt Q9UQ80); test: Differential scanning fluorimetry of PA2G4; assay type: binding; design: made in house; host or cells: BL21 (DE3) E. coli; details: relative to DMSO control
T1 sequence (Q9UQ80 1-394): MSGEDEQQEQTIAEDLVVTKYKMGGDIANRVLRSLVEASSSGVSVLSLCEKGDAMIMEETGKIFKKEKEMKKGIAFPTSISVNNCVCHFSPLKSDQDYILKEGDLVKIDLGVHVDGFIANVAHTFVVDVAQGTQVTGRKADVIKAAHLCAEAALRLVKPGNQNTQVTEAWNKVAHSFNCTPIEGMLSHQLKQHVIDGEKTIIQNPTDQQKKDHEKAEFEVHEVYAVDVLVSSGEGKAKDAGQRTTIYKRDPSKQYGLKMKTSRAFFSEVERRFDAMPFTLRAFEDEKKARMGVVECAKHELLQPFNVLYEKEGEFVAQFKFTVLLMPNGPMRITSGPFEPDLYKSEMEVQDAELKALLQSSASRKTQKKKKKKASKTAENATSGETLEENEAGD
Description: Seeking a further reduction of toxicity and improvements in physicochemical properties, we conducted a second in silico analogue screen using the structure of #3567. A further 33 compounds were purchased and assayed (Supplementary Figure S1C).

SK-N-BE(2)-C cells = test: Label-free quantitative LC/MS proteomics of treated SK-N-BE(2)-C cells; assay type: cell-based, human; details: 72 h, versus DMSO, LFQ LC/MS
Experimental: SK-N-BE(2)-C cells were incubated with #5333 or #5338 at IC50 concentration of the compound for 72 h. Cells were harvested and the pellets were lysed with RIPA buffer containing protease inhibitors (Sigma-Aldrich, St. Louis, MO, USA). Cell lysates were sent for LFQ/LC/MS analysis at the Bioanalytical Mass Spectrometry Facility, UNSW Sydney. […] Differential protein expression analysis was performed using the DEP (v1.14.0) package in R(v4.1.1). Variance stabilising transformation (vsn) method was used to normalise the protein expression data. Threshold of p-value < 0.05 and log2 fold-change value > |0.6| was used as a cut off to identify differentially expressed proteins. Functional enrichment analysis was performed using DAVID (v 6.8).
To further understand the mechanism of action and off target effects of the WS6 analogues, we used label-free quantitative mass spectrometry of differential proteome expression in response to drug treatment. […] A total of 4255 unique proteins were captured across the three proteomes, of which 258 proteins were differentially expressed after treatment with #5333, and 1371 proteins treated with #5338, when compared to DMSO-treated cells (Figure 4A,B and Supplementary Figure S4A).

Kelly shMYCN cells = test: Alamar Blue viability, Dox-inducible Kelly shMYCN cells; assay type: cell-based; details: Homo sapiens, 72 h, 72 h treatment
Description: (§1) The MYCN amplified neuroblastoma cell line SK-N-BE(2)-C was kindly provided by Professor June Biedler (Memorial Sloan Kettering Cancer Centre, New York, NY, USA), and Kelly was obtained from European Collection of Cell Cultures. The two normal lung fibroblast cell lines (MRC-5 and WI-38) were purchased from ATCC. SK-N-BE(2)-C shMYCN#2 doxycycline-inducible cell and Kelly shMYCN#2 doxycycline-inducible cell were custom-made by GenScript (Piscataway, NJ, USA). SK-N-BE(2)-C, SK-N-BE(2)-C shMYCN#2, and SHEP MYCN3 doxycycline-inducible cells were maintained in Dulbecco’s modified Eagle’s medium (DMEM) (Invitrogen, Life Technologies, Waltham, MA, USA) with 10% foetal calf serum (FCS). Kelly and Kelly shMYCN#2 doxycycline-inducible cell were cultured in Roswell Park Memorial Institute (RPMI) 1640 (Invitrogen, Life Technologies) with 10% FCS. MRC-5 and WI-38 were cultured in Alpha-MEM media (Invitrogen, Life Technologies) with 10% FCS. All cells were not cultured for more than 2 months. All used cell lines were authenticated by Cell Bank Australia (Westmead, NSW, Australia) as being free from mycoplasma, and cultured at 37 °C and 5% CO2 in a humidifier incubator.
(§2) Cell viability was determined by the Alamar Blue assay (75 mg resazurin, 12.5 mg methylene blue, 164.5 mg potassium hexacyanoferrate (III), 211 mg potassium hexacyanoferrate (II) trihydrate in 500 mL of phosphate buffered saline). After 6 h incubation with Alamar Blue, the change of fluorescence was measured by Victor 3 multilabel Plate Reader (Perkin Elmer Australia, Melburne, Australia) at an excitation wavelength of 560 nm and an emission wavelength of 590 nm.
(§3) Next, we examined whether #5333 and #5338 treatment for 48 h affected the levels of WS6 target proteins, PA2G4, and MYCN in neuroblastoma cells. […] To determine the specificity of #5333 and #5338 for MYCN, we used two different doxycycline (Dox)-inducible neuroblastoma cell systems for repression of MYCN expression: shMYCN SK-N-BE(2)-C (MYCN-amplified) and shMYCN Kelly (MYCN-amplified) cell lines. Cell viability was measured following #5333 and #5338 treatments for 48–72 h. […] In addition, the specificity and efficacy of #5333 and #5338 were also tested in MYCN non-amplified SHEP MYCN3 cell lines with Dox-inducible MYCN induction. Cell viability was measured following #5333, #5338, or WS6 treatments for 72 h.
(§4) Figure 3 Compounds #5333 and #5338 functionally interact with MYCN and PA2G4 in neuroblastoma cells. (A) Western blot showing a decrease in protein expression due to #5333 or #5338 drug treatment. (B) Alamar Blue assays comparing cell viability of SK-N-BE(2)-C after Doxycycline (Dox)-inducible MYCN knockdown, followed by 72 h treatment with #5333 or #5338. […]

[1] = tested on: SK-N-BE(2)-C shMYCN cells; test: Alamar Blue viability, Dox-inducible SK-N-BE(2)-C shMYCN cells; assay type: cell-based; details: Homo sapiens, 72 h, 72 h treatment
Description: as §1, §2, §3, §4

[2] = Dox (2 μg/ml) +, MYCN - (knockdown)

melting temperature of PA2G4 (DSF) (PA2G4 protein)	IC50 [1, 2]	IC50 ([1]; Dox (2 μg/ml) -, MYCN +)	Compound	GATA2 protein fold change (SK-N-BE(2)-C cells)	IC50 (Kelly shMYCN cells; [2])	IC50 (Kelly shMYCN cells; Dox (2 μg/ml) -, MYCN +)
increased the melting temperature	32.3 µM	24.1 µM	Cc1cccc(Oc2cc(N3CCC(C(=O)N[C@@H](C)CCc4ccccc4)CC3)ncn2)c1C [#5338]	−5.5	31.5 µM	16 µM
increased the melting temperature	46.6 µM	25.2 µM	Cc1cccc(Oc2cc(N3CCC(C(=O)NCc4cccc(Br)c4)CC3)ncn2)c1C [#5333]	−4.2	52.8 µM	22.4 µM
